2 molecules from US7547705B2, “Substituted 8′-pyri(MI)dinyl-dihydrospiro-[cycloalkylamine]-pyrimido[1,2-a]pyrimidin-6-one derivatives” (Sanofi-Aventis, priority 2003, dated 2009) can be followed below.

pIC50: −log10 of the molar value.

The assay deals with GSK3β (Homo sapiens, UniProt P49841). Kind of assay: Inhibitory activity against GSK3β (33P-ATP phosphorylation of prephosphorylated GS1 peptide, two protocols). It counts as biochemical. Conditions: GS1 peptide / 33P-ATP filter assay; which of the two protocols was used is not stated. The procedure: Inhibitory activity of the medicament of the present invention against GSK3β: Two different protocols can be used. In a first protocol: 7.5 μM of prephosphorylated GS1 peptide and 10 μM ATP (containing 300,000 cpm of 33P-ATP) were incubated in 25 mM Tris-HCl, pH 7.5, 0.6 mM DTT 6 mM MgCl2, 0.6 mM EGTA, 0.05 mg/ml BSA buffer for 1 hour at room temperature in the presence of GSK3beta (total reaction volume: 100 microliters). In a second protocol: 4.1 μM of prephosphorylated GSI peptide and 42 μM ATP (containing 260,000 cpm 33P-ATP) were incubated in 80 mM Mes-NaOH, pH 6.5, 1 mM Mg acetate, 0.5 mM EGTA, 5 mM 2-mercaptoethanol, 0.02% Tween 20,10% glycerol buffer for 2 hours at room temperature in the presence of GSK3beta. Inhibitors were solubilised in DMSO (final solvent concentration in the reaction medium, 1%). The reaction was stopped with 100 microliters of a solution made of 25 g polyphosphoric acid (85% P2O5), 126 ml 85% H3PO4, H2O to 500 ml and then diluted to 1:100 before use. An aliquot of the reaction mixture was then transferred to Whatman P81 cation exchange filters and rinsed with the solution described above. Incorporated 33P radioactivity was determined by liquid scintillation spectrometry. The phosphorylated GS-1 peptide had the following sequence: NH2-[…](P)EDEE-COOH. […]
Chain of GSK3β (P49841 whole entry, species assumed): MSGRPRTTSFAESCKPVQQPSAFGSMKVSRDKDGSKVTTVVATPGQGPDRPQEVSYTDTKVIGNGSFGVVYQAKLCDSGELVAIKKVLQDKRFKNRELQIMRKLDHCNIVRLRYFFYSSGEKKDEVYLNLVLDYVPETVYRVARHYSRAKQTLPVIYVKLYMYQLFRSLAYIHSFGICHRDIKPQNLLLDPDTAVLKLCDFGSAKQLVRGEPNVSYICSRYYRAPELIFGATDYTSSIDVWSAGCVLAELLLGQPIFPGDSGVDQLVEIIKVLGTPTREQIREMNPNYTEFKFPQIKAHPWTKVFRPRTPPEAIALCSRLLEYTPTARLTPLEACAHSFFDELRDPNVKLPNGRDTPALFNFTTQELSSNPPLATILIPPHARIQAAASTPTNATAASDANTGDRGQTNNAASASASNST

The pIC50 is the negative decadic logarithm of the IC50, by convention in mol/L. A lower pIC50 goes with a high IC50. For the molecule `CN1CCC2(CC1)CCn1c(nc(-c3ccncc3)cc1=O)N2CC(=O)c1ccccc1` [compound No. 4 of table 1, 1-Methyl-1′-(2-oxo-2-phenylethyl)-8′-(pyridin-4-yl)-3′,4′-dihydrospiro[piperidine-4,2′-pyrimido[1,2-a]pyrimidin]-6′(1′H)-one], the pIC50 was 8.15. For the molecule `CN1CCC2(CCn3c(nc(-c4ccncc4)cc3=O)N2CC(=O)c2ccccc2)C1` (centres unmarked) [compound No. 4 of table 2, 1′-Methyl-1-(2-oxo-2-phenylethyl)-8-(pyridin-4-yl)-3,4-dihydrospiro (pyrimido[1,2-a]pyrimidine-2,3′-pyrrolidin]-6(1H)-one], the pIC50 was 8.22.
